# Results published in patent US11844801B2, “Oral compositions of MK2 pathway inhibitor for treatment of immune conditions” (priority 2020, dated 2023).
# Several values for one entry are separate records, joined by “and”; a condition that tells them apart may be missing. Equal entries are not always repeated. Entries after “also recorded” stand apart in the source; their conditions may differ.
# How the values were obtained:
# [1] = test system: IL-8; assay: Ex vivo LPS-stimulated IL-8 in blood of dosed healthy subjects, PK/PD inhibitory Emax model; design: species or system human
# Procedure: Blood samples of 10 mL were collected for PD analysis. For the SAD cohorts, blood was collected before dosing and 1, 12, and 24 hours after dosing. For the MAD cohorts, on day 1 blood was collected before the morning dose and 4 and 12 hours after the morning dose (prior to the evening dose); on day 7, blood was collected before the morning dose and 4 and 12 hours after the morning dose.
# Additional details of the assays for analyzing p-HSP27 and cytokines are included in the Supplementary Information.
# Pharmacodynamics. PD data analysis was conducted using Microsoft Excel 2010 (Microsoft, Redmond, WA), Meso Scale Discovery Workbench® analysis software (Rockville, MD), and Phoenix WinNonlin, version 8.2.
# Sample Preparation for Cytokine Analysis. For each sample, 180 μL aliquots were transferred into 7 wells of a round bottom 96 well tissue culture polystyrene low evaporation plate. […] No outer wells on the plates were used and all wells surrounding the samples contained 200 μL of phosphate buffered saline.
# DMSO was added to all wells in groups ‘A’ and ‘C’ to a final concentration of 0.1% ([…] of a 2% DMSO solution in DMEM containing 10% FBS and 1% penicillin/streptomycin/glutamine). […] Samples were mixed gently for 30 seconds on a plate shaker using pin tools, then placed in an incubator at 37° C./5% CO2 for 1 hour.
# Samples in groups ‘A’ and ‘B’ were stimulated with lipopolysaccharide at a final concentration of 100 ng/mL. A stock solution of lipopolysaccharide at 1 mg/mL in DMEM containing 10% FBS and 1% penicillin/streptomycin was diluted to […] in DMEM containing 10% FBS and 1% penicillin/streptomycin, and […] of this working solution was added per well of blood for all samples in groups ‘A’ and ‘B’. […] of DMEM containing 10% FBS only was added per well of blood for all samples in group ‘C’ (unstimulated samples). Samples were mixed gently for 30 seconds on a plate shaker using pin tools, then placed in an incubator at 37° C./5% CO2 for 5 hours.
# Following the incubation, the plates were removed from the incubator and sealed with adhesive clear plate seals. The plates were then centrifuged for 10 minutes at 1800×g at room temperature. […] of plasma was removed from each well and transferred to a 96-well polypropylene round bottom master plate, which was then sealed and frozen at −80° C. until all samples from the respective cohort were generated. Once all samples from a given cohort were generated, the samples were analyzed for cytokine (TNF-α, IL-1b, IL-6, and IL-8) production using Meso Scale Discovery Technology.
# Analysis of Cytokine Levels Using Meso Scale Discovery Technology. All lipopolysaccharide plasma samples were analyzed for cytokine production with a V-Plex Human Proinflammatory Panel II (4-Plex) Kit from Meso Scale Discovery (Rockville, MD). The master plates containing the plasma samples were thawed on ice, and a daughter plate consisting of a 25-fold dilution of each plasma sample (3 μL of plasma plus 72 μL of Meso Scale Discovery Diluent 2) was generated for each master plate. The diluted plasma samples from the daughter plates were used in the cytokine analysis. The Meso Scale Discovery 4-plex plates were washed 3 times with 150 μL/well of wash buffer (1×KPL phosphate buffered saline with Tween 20 from SeraCare [Milford, MA]). Prepared calibrators and the samples from the daughter plates were added to the washed Meso Scale Discovery 4-plex plates at 50 μL/well. The 4-plex plates were sealed and shaken overnight at 4° C.
# After the overnight incubation, the samples were removed by decanting. The 4-plex plates were then washed 3 times with 150 μL/well of wash buffer. […]
# [2] = test system: TNF-α, IL-1β, IL-6, and IL-8; assay: Phase 2a RA study: ex vivo LPS-stimulated cytokines in patient blood; design: species or system human; conditions: 50 mg BID, 12 weeks
# [3] = test system: IL-6; assay: A549 IL-1β stimulated IL-6 assay; format: cell-based; conditions: Homo sapiens, A549 cells, 1 ng/mL, 18 hr
# Procedure: A549 IL-1β stimulated IL-6 Assay—A549 cells (American Type Culture Collection, […]) were grown in Ham's F-12K (Kaighn's) (Gibco, 21127-022) with penicillin-streptomycin (10 U/mL) (Gibco, 15140-122) and 10% fetal bovine serum (Gibco, 26140-079). Cells were grown to 80% confluence then trypsinized to remove cells. Cells were plated in 96 well flat bottom plates in complete media and allowed to recover overnight. Cells were pretreated for one hour in the presence of serially diluted compound or vehicle (0.5% DMSO) (Sigma-Aldrich, D2650) then stimulated with IL-1β (1 ng/mL) (R&D Systems, 201-LB-005) for 18 hours. Culture media was then collected for determination of IL-6 levels using Meso Scale Technology.
# [4] = test system: TNF-α; assay: Mouse neutrophil (mPMN) IL-1α stimulated TNF-α; format: cell-based
# Procedure: Biosynthesis of […] was quantified using MSD technology. […] Cells and compound were stimulated with mouse IL-1α to a final concentration of 10 ng/mL and incubated for 4 hours at 37° C. Supernatants were collected and TNF-α levels quantitated using MSD technology.
# [5] = test system: TNF-α; assay: Rat whole blood LPS stimulated TNF-α; format: cell-based; conditions: 100 ng/mL, 4 hr
# [6] = test system: TNF-α; assay: Porcine whole blood LPS stimulated TNF-α assay; format: cell-based; conditions: Sus scrofa, Pig Whole Blood, 10 µg/mL, 4 hr
# Procedure: Porcine LPS stimulated TNF-α Assay—Porcine whole blood was collected into heparinized vacutainers then transferred into conical tubes and shipped overnight on wet ice. Porcine whole blood was aliquoted (160 μL/well) into round bottom 96 well tissue culture plates. Compounds were serially diluted in 100% DMSO (Sigma-Aldrich, D2650) followed by a 100× dilution into RPMI/10% FBS (Gibco, 11875/26140). The diluted compounds were then added to each plate in duplicate 20 μL aliquots for final concentrations ranging from 10 μM to 1 pM. DMSO final concentration was 0.1%. After a one-hour incubation at 37° C. with 5% CO2, 20 μL of LPS (Sigma-Aldrich, L2630), in RPMI/10% FBS (Gibco, 11875/26140) was added for a final concentration of 10 μg/mL to each well except for the no stimulus wells. After four hours of incubation with LPS, plasma was harvested by centrifugation at 1,800×g for five minutes. The plasmas were assayed for TNF-α levels using a porcine specific TNF-α Quantikine ELISA kit (R&D, PTA00) according to the kit protocol.
# [7] = test system: TNF-α; assay: TLR2 ligand (Pam3) or LPS induced TNF-α in peripheral blood mononuclear cells; format: cell-based; conditions: 10-10,000 nM
# Procedure: LPS or Pam3 were then added to the designated wells for a final concentration of 100 ng/mL for both (or medium for unstimulated control). After 30 min MSU was added to the designated wells for final concentration of 100 μg/mL (or medium for no-MSU control). After a 6-hour incubation, plates were centrifuged at 500×g for 5 min, and medium was collected from each well for assay. Released TNF-α was measured using Meso Scale Discovery technology, an ELISA-like format with capture and detection antibodies, but with a final readout using electrochemiluminescence.
compound,measurement,setting,value
"Cc1cnc(-c2ccnc(C(C)(C)O)n2)cc1-n1c(C)cc(OCc2ncc(F)cc2F)c(Cl)c1=O (single isomer, unassigned) [ATI-450, 3-chloro-4-((3,5-difluoropyridin-2-yl)methoxy)-2′-(2-(2-hydroxypropan-2-yl)pyrimidin-4-yl)-5′,6-dimethyl-2H-[1,4′-bipyridin]-2-one]",Cmax (Multiple of IC80),"[1]; 50 mg BID, day 7",5.6x
same,Ctrough (Multiple of IC80),"[1]; 50 mg BID, day 7",2.3x
same,IC80,"[1]; Homo sapiens, calculated from IC50, combined SAD and MAD data, read-out: IC80, plasma concentration at 80% of maximal inhibition",0.0388 µg/mL
same,IC50,"[1]; Homo sapiens, inhibitory Emax model, combined SAD and MAD data, read-out: IC50, plasma concentration at half maximal inhibition",0.0097 µg/mL
same,"IC80, plasma concentration at 80% of maximal inhibition","[1]; calculated from IC50, combined SAD and MAD data",0.0388 µg/mL
same,"Imax, maximum percent inhibition",[1]; inhibitory Emax model,57% and 57.1%
same,ex vivo stimulated cytokines in RA patient blood,[2],sustained inhibition of proinflammatory cytokines; also recorded: marked and durable inhibition
same,IC50,[3],11.1 ± 7.6 nM
same,IC50,"[4]; Mus musculus, Neutrophil, mPMN, IL-1α, 10 ng/mL, 4 hr",5 nM
same,IL-1α mediated TNF-α signaling in neutrophils,"[4]; mouse IL-1α 10 ng/mL, 4 hours",dose dependently inhibits
same,IC50,[5],14.3 ± 1.9 nM
same,IC50,[6],7.4 nM
same,TLR2 ligand induced TNF-α production,[7],dose dependently inhibits
